Measurements as given in PMC12557437, “Research towards selective inhibition of the CLK3 kinase” (Beilstein Journal of Organic Chemistry, 2025).
Several values for one entry are separate records, joined by “and”; a condition that tells them apart may be missing. Equal entries are not always repeated. Entries after “also recorded” stand apart in the source; their conditions may differ.

Experiments:
CLK1, CLK2, and CLK4 = test: radiometric kinase assay, summary for the other CLKs; type: biochemical, mouse; conditions: Table 2; read-out: inhibition of CLK1, CLK2, and CLK4 (best value)
Excerpt: (§1) The results are reported in Table 2 and in Supporting Information File 1.

Mm_CLK3 = Mm_CLK3 (Mus musculus, UniProt O35492); test: radiometric γ33P-ATP kinase assay (Eurofins); type: biochemical; conditions: 15 µM ATP; dose-response, points in duplicate
Chain of Mm_CLK3 (O35492 whole entry): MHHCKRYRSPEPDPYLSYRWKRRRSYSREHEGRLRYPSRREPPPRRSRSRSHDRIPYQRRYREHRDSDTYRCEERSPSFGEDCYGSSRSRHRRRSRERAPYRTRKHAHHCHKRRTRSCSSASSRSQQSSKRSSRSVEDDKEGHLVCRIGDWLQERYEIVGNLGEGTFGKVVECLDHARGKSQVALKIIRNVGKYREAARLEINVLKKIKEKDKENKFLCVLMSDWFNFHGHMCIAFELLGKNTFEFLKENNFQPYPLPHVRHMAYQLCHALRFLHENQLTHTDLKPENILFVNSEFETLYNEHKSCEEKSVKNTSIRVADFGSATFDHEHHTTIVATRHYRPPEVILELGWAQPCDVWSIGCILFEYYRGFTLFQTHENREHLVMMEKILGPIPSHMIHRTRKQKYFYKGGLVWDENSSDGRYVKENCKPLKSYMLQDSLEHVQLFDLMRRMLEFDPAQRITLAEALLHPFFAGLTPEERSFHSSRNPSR
Description: as §1
(§2) 2- Kinase inhibition studies
(§3) Kinase enzymatic activities were assayed using both luminescent ADP detection assay
(§4) (ADP-GloTM assay kit, Promega, Madison, WI) or radiometric kinase assay. These
(§5) assays were performed using the protocols described in our previous publication. […]
(§6) 1.Brahmaiah, D.; Kanaka Durga Bhavani, A.; Aparna, P.; Sampath Kumar, N.; Solhi,
(§7) H.; Le Guevel, R.; Baratte, B.; Ruchaud, S.; Bach, S.; Singh Jadav, S.; Raji Reddy, C.;
(§8) Roisnel, T.; Mosset, P.; Levoin, N.; Grée, R. Bioorg.
(§9) R.; Baratte, B.; Robert, T.; Ruchaud, S.; Bach, S.; Jadav, S. S.; Reddy, C. R.; Mosset,
(§10) P.; Gouault, N.; Levoin, N.; Grée, R. Molecules 2022, 27, 6149. […]

Hs_GSK3β = Hs_GSK3β (Homo sapiens, UniProt P49841); test: primary screening, short panel of mammalian kinases; type: biochemical; conditions: ATP 10 µM, means, n = 2, read-out: Residual kinase activity Hs_GSK3β
Chain of Hs_GSK3β (P49841 whole entry): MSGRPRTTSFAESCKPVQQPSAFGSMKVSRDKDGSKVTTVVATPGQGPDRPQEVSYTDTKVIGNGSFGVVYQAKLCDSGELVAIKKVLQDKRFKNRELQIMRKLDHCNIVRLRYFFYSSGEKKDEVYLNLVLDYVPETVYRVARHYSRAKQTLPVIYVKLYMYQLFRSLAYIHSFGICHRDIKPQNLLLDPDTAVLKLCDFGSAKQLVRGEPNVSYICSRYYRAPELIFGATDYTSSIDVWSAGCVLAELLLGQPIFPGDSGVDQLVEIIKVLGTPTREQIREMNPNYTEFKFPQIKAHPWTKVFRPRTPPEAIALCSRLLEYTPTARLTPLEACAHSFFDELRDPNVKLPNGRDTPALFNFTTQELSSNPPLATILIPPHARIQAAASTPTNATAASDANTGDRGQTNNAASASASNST
Excerpt: (§11) Our molecules have been submitted first to a primary screening against a panel of eight disease-related kinases: five members of the CMGC (for CDK, MAPK, GSK3, and CLK) group (CDK5/p25, CDK9/CyclinT, GSK3β, CLK1 and DYRK1A), one CAMK (calmodulin/calcium regulated kinase PIM1), one CK1 (the casein kinase CK1ε), and haspin as a […] kinase.
(§12) Figure 4 Primary evaluation of the inhibition of the new quinazolines against a short panel of mammalian kinases. Residual kinase activities are expressed in % of maximal activity, i.e., measured in the absence of inhibitor but with an equivalent dose of DMSO (solvent of the tested compounds). ATP concentration used in the kinase assays was 10 µM (values are means, n = 2). Kinases are from human origin (Homo sapiens) except CLK1 (from Mus musculus) and DYRK1A (from Rattus norvegicus). […]

Hs_CK1ε = Hs_CK1ε (Homo sapiens, UniProt P49674); test: as above; type: biochemical; conditions: ATP 10 µM, means, n = 2, read-out: Residual kinase activity Hs_CK1ε
Chain of Hs_CK1ε (P49674 whole entry): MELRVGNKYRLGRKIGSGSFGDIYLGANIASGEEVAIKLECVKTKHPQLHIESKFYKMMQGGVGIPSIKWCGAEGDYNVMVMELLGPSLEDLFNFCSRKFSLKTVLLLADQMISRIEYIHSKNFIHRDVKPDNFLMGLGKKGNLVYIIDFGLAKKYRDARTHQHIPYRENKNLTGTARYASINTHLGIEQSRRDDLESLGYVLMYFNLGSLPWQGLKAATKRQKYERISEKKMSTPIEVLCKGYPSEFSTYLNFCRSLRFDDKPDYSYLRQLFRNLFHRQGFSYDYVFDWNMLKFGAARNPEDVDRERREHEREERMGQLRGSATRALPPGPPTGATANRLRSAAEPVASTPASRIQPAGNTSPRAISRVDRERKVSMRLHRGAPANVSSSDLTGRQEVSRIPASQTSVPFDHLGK
Excerpt: as §11, §12

Hs_PIM1 = Hs_PIM1 (Homo sapiens, UniProt P11309); test: as above; type: biochemical; conditions: ATP 10 µM, means, n = 2, read-out: Residual kinase activity Hs_PIM1
Chain of Hs_PIM1 (P11309 whole entry): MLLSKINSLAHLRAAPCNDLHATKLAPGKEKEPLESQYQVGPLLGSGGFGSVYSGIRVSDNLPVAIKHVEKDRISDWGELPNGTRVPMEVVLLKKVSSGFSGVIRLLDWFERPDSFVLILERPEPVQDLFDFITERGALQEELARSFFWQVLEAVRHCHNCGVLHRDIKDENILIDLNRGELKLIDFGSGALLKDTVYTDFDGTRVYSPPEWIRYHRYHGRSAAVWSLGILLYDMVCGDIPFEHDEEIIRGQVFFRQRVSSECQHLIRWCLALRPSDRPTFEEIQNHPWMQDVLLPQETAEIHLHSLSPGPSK
Excerpt: as §11, §12

Mm_CLK1 [1] = molecular target: T1, Mm_CLK1 (Mus musculus, UniProt P22518); test: as above; type: biochemical
T1 sequence (P22518 whole entry): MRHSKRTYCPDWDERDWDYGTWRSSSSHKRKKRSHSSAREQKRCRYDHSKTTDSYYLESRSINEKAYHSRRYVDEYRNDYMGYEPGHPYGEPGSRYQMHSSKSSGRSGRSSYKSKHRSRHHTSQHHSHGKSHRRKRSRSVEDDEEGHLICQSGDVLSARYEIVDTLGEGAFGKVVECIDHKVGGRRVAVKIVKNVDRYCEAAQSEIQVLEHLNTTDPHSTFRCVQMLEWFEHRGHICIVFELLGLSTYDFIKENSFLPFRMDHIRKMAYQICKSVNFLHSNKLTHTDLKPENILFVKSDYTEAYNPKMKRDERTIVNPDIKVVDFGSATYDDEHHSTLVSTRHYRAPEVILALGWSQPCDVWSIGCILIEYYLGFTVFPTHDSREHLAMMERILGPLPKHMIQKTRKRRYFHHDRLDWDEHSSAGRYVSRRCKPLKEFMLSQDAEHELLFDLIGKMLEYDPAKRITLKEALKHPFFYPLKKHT
Excerpt: as §11, §12

Hs_HASPIN = molecular target: T2, Hs_HASPIN (Homo sapiens, UniProt Q8TF76); test: as above; type: biochemical; conditions: ATP 10 µM, means, n = 2, read-out: Residual kinase activity Hs_HASPIN
T2 sequence (Q8TF76 1-798): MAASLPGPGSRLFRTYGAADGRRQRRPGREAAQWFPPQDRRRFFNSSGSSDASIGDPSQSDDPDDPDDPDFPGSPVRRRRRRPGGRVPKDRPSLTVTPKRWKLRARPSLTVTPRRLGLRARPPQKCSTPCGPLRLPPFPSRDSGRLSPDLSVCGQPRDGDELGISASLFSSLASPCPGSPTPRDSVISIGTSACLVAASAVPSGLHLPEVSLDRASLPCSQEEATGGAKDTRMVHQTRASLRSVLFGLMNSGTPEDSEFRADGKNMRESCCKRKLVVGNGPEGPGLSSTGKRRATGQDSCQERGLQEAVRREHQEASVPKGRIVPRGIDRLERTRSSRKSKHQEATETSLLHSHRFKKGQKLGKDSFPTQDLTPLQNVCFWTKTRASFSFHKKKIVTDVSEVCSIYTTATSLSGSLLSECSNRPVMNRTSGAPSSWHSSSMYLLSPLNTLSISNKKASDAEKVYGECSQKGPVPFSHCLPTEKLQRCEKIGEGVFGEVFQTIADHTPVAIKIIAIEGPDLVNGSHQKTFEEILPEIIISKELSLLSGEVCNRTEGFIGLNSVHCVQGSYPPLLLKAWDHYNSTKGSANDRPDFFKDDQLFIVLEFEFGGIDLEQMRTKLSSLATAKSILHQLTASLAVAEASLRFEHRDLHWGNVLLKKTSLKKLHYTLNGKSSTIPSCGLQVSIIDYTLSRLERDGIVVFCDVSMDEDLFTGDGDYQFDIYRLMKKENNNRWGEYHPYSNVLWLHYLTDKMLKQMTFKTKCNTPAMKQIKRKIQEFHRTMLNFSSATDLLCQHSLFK
Excerpt: as §11, §12

Mm_CLK2 = Mm_CLK2 (Mus musculus, UniProt O35491); test: radiometric γ33P-ATP kinase assay (Eurofins); type: biochemical
Chain of Mm_CLK2 (O35491 whole entry): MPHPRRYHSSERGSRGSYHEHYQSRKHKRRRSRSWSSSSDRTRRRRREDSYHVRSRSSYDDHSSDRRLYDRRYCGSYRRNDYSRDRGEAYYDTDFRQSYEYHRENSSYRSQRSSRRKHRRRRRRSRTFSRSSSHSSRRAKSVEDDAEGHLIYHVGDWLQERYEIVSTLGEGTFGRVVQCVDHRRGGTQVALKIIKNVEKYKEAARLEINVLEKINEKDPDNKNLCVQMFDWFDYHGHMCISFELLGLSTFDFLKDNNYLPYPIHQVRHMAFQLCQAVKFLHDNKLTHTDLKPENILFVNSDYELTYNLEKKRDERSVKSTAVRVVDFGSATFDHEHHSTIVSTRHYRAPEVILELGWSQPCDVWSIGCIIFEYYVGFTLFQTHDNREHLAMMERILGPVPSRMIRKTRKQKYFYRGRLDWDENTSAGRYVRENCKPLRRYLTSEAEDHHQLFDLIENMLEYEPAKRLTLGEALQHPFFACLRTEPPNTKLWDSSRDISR
Description: as §1, §2, §3, §4, §5, §6, §7, §8
(§13) R.; Baratte, B.; Robert, T.; Ruchaud, S.; Bach, S.; Jadav, S. S.; Reddy, C. […]

Mm_CLK4 = Mm_CLK4 (Mus musculus, UniProt O35493); test: radiometric γ33P-ATP kinase assay (Eurofins); type: biochemical
Chain of Mm_CLK4 (O35493 whole entry): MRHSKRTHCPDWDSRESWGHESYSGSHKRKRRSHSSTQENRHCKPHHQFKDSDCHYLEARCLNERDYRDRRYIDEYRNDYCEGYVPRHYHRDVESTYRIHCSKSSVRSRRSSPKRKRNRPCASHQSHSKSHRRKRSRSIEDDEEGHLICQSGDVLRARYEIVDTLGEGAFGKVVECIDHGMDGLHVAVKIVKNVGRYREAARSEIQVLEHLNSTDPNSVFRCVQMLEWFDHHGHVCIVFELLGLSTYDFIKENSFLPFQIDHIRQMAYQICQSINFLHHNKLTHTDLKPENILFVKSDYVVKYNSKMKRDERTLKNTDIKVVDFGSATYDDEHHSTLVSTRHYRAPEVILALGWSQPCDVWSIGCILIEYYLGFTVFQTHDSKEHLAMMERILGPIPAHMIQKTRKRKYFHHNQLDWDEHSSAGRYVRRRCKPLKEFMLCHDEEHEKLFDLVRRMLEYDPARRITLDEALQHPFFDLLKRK
Description: as §1, §2, §3, §4, §5, §6, §7, §8, §13

Mm_CLK1 [2] = molecular target: T1, Mm_CLK1; test: radiometric γ33P-ATP kinase assay (Eurofins); type: biochemical
Description: as §1, §2, §3, §4, §5, §6, §7, §8, §13

DYRK kinases = test: radiometric kinase assay, summary for DYRK kinases; type: biochemical; conditions: DYRK1A, DYRK1B, DYRK2; listed as VS-77
Excerpt: (§14) Finally, in order to complete our profiling of VS-77, we then measured its activity against the DYRK 1A, DYRK1B and DYRK2 kinases and the results are reported in Table 3.
This point will be discussed in the molecular modeling part below.

Hs_DYRK2 = molecular target: T3, Hs_DYRK2 (Homo sapiens, UniProt Q92630); test: radiometric γ33P-ATP kinase assay (Eurofins); type: biochemical; conditions: 15 µM ATP; dose-response, points in duplicate
T3 construct: purchased Eurofins, UK
T3 sequence (Q92630 whole entry): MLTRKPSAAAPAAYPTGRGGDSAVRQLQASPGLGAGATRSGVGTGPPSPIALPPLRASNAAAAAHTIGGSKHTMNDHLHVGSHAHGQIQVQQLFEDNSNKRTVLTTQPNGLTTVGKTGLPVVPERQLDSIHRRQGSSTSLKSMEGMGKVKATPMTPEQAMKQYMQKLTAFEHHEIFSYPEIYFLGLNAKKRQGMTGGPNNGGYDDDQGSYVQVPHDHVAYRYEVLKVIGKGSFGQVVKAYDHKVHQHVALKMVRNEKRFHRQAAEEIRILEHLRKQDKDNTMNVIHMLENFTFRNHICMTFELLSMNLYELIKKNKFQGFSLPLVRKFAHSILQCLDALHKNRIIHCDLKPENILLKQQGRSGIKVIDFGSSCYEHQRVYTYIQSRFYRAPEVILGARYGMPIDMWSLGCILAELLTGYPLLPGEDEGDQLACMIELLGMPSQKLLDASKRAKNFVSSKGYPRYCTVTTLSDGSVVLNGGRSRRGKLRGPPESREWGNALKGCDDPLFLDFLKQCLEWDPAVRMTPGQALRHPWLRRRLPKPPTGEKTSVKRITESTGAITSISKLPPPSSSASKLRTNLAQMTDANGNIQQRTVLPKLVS
Description: as §14, §2, §3, §4, §5, §6, §7, §8, §9, §10

Rn_DYRK1A = Rn_DYRK1A (Rattus norvegicus, UniProt Q63470); test: radiometric γ33P-ATP kinase assay (Eurofins); type: biochemical; conditions: 15 µM ATP; dose-response, points in duplicate
Description: as §14, §2, §3, §4, §5, §6, §7, §8, §9, §10

Hs_DYRK1B = molecular target: T4, Hs_DYRK1B (Homo sapiens, UniProt Q9Y463); test: radiometric γ33P-ATP kinase assay (Eurofins); type: biochemical; conditions: 15 µM ATP; dose-response, points in duplicate
T4 construct: purchased Eurofins, UK
T4 sequence (Q9Y463 whole entry): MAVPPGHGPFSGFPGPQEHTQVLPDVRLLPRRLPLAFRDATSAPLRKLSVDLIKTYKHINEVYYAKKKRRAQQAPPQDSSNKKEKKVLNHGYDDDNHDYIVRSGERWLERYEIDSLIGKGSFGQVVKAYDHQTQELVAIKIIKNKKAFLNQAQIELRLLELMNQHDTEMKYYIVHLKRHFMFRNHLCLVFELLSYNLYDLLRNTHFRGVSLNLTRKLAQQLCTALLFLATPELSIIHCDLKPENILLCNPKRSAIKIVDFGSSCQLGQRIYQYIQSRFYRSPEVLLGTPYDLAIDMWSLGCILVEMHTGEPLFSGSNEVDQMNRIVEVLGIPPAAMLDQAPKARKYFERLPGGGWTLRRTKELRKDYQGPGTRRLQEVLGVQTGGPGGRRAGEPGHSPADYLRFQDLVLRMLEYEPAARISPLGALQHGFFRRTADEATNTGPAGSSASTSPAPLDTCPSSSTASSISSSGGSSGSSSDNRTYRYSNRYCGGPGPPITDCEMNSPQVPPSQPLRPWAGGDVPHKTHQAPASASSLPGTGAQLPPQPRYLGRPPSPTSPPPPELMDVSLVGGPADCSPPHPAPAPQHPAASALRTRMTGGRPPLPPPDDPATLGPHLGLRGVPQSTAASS
Description: as §14, §2, §3, §4, §5, §6, §7, §8, §9, §10

Hs_DYRK1A = molecular target: T5, Hs_DYRK1A (Homo sapiens, UniProt Q13627); test: radiometric γ33P-ATP kinase assay (Eurofins); type: biochemical; conditions: 15 µM ATP; dose-response, points in duplicate
T5 construct: purchased Eurofins, UK
Description: as §14, §2, §3, §4, §5, §6, §7, §8, §9, §10

[3] = 15 µM ATP, dose-response, points in duplicate

Cc1ccc(-n2cc(COc3cccc4cnc(Nc5cc(Cl)cc(-c6cccc(C(=O)O)c6)c5)nc34)nn2)c([N+](=O)[O-])c1 [Compound 13b]
IC50 (CLK1, CLK2, and CLK4): 60 nM | IC50 (Mm_CLK3): 300 nM and 303 nM | remaining activity at 1 µM (Hs_GSK3β; compound 1 μM): ≥ 100% | remaining activity at 10 µM (Hs_GSK3β; compound 10 μM): 43% | remaining activity at 1 µM (Hs_CK1ε; compound 1 μM): ≥ 100% | remaining activity at 10 µM (Hs_CK1ε; compound 10 μM): ≥ 100% | remaining activity at 1 µM (Hs_PIM1; compound 1 μM): 88% | remaining activity at 10 µM (Hs_PIM1; compound 10 μM): ≥ 100% | activity against CLK1 in primary screening (Mm_CLK1 [1]; 1 and 10 µM): significant activity against CLK1 | remaining activity at 1 µM (Mm_CLK1 [1]; compound 1 μM, ATP 10 µM, means, n = 2, read-out: Residual kinase activity Mm_CLK1): 20% | remaining activity at 10 µM (Mm_CLK1 [1]; compound 10 μM, ATP 10 µM, means, n = 2, read-out: Residual kinase activity Mm_CLK1): 11% | remaining activity at 1 µM (Hs_HASPIN; compound 1 μM): 74% | remaining activity at 10 µM (Hs_HASPIN; compound 10 μM): 74% | IC50 (Mm_CLK2; [3]): 61 nM | Mm_CLK3/Mm_CLK2 (Mm_CLK2; ratio of IC50 values): 4.97 | IC50 (Mm_CLK4; [3]): 62 nM | Mm_CLK3/Mm_CLK4 (Mm_CLK4; ratio of IC50 values): 4.89 | IC50 (Mm_CLK1 [2]; [3]): 127 nM | Mm_CLK3/Mm_CLK1 (Mm_CLK1 [2]; ratio of IC50 values): 2.38 | inhibition of DYRK kinases (DYRK kinases): low, but significant inhibition; also recorded: weak inhibitor | IC50 (Hs_DYRK2): 11.7 µM | IC50 (Rn_DYRK1A): 14.8 µM | IC50 (Hs_DYRK1B): 4.6 µM | IC50 (Hs_DYRK1A): 5.31 µM
